According to patent US8648066B2 (Exelixis, Inc., priority 2009, dated 2014):

Molecular target: mTOR/GbL/Raptor (mTORC1) (Homo sapiens, UniProt P42345)
Experiment: mTOR/GbL/Raptor (mTORC1) ELISA assay
Type: biochemical
Details: phosphorylation of 4E-BP1; 0.2 nM mTORC1, 10 μM ATP; read-out: IC50 in this assay (mTORC1 ELISA)
In short: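 ELISA read-out: phospho-4E-BP1 captured on Ni-chelate plates and detected with anti-phospho antibody plus HRP-anti-IgG luminescence. The kinase step ran 120 min at ambient temperature with 0.2 nM human mTORC1, 10 µM ATP, 50 nM His-4E-BP1, 10 mM MnCl2, pH 7.2 HEPES.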

| Structure (SMILES) | IC50 |
| --- | --- |
| CC1(C)CCc2ncnc(N3CCOc4ccc(-c5cnc(N)c(S(=O)(=O)NCC6CNC6)c5)cc4C3)c2C1 [Example 415, 2-amino-N-(azetidin-3-ylmethyl)-5-[4-(6,6-dimethyl-5,6,7,8-tetrahydroquinazolin-4-yl)-2,3,4,5-tetrahydreo-1,4-benzoxazepin-7-yl]pyridine-3-sulfonamide] | 0.01 to 0.05 µM |
| CC1=CC(C)(C)Cc2c1ncnc2N1CCOc2ccc(-c3cnc4nc(C)[nH]c4c3)cc2C1 [Example 554, 7-(2-methyl-1H-imidazo[4,5-b]pyridin-6-yl)-4-(6,6,8-trimethyl-5,6-dihydroquinazolin-4-yl)-2,3,4,5-tetrahydro-1,4-benzoxazepine] | ≤ 0.01 µM |
| COCCNCc1nc2c(c(N3CCOc4ccc(-c5cnc6nc(C)[nH]c6c5)cc4C3)n1)CC(C)(C)CC2 [Example 590, N-({6,6-dimethyl-4-[7-(2-methyl-1H-imidazo[4,5-b]pyridin-6-yl)-2,3-dihydro-1,4-benzoxazepin-4(5H)-yl]-5,6,7,8-tetrahydroquinazolin-2-yl}methyl)-2-(methyloxy)ethanamine] | ≤ 0.01 µM |
| Cc1nc2ncc(-c3ccc4c(c3)CN(c3ncnc5c3CCC(C(C)O)C5)CCO4)cc2[nH]1 (stereo not drawn) [Example 340, 1-{4-[7-(2-methyl-1H-imidazo[4,5-b]pyridin-6-yl)-2,3-dihydro-1,4-benzoxazepin-4(5H)-yl]-5,6,7,8-tetrahydroquinazolin-7-yl}ethanol] | 0.05 to 0.25 µM |
| COc1c(OCC(C)C)ccc2c(N3CCOc4ccc(-c5ccc6nc(C)[nH]c6c5)cc4C3)ncnc12 [Example 166, 7-(2-methyl-1H-benzimidazol-6-yl)-4-{8-(methyloxy)-7-[(2-methylpropyl)oxy]quinazolin-4-yl}-2,3,4,5-tetrahydro-1,4-benzoxazepine] | 0.25 to 1 µM |
| Cc1nc2ncc(-c3ccc4c(c3)CN(c3ncnc(N5CCN(C)CC5)c3C)CCO4)cc2[nH]1 [Example 563, 7-(2-methyl-1H-imidazo[4,5-b]pyridin-6-yl)-4-[5-methyl-6-(4-methylpiperazin-1-yl)pyrimidin-4-yl]-2,3,4,5-tetrahydro-1,4-benzoxazepine] | 0.25 to 1 µM |
| Cc1ncc(-c2ccc3c(c2)CN(c2ncnc4c2CCC(C)(C)C4)CCO3)s1 [Example 152, 4-(7,7-dimethyl-5,6,7,8-tetrahydroquinoazlin-4-yl)-7-(2-methyl-1,3-thiazol-5-yl)-2,3,4,5-tetrahydro-1,4-benzoxazepine] | 0.25 to 1 µM |
| Cc1nc2ncc(-c3ccc4c(c3)CN(c3ncnc(N5CCC5)c3C)CCO4)cc2[nH]1 [Example 480, 4-(6-azetidin-1-yl-5-methylpyrimidin-4-yl)-7-(2-methyl-1H-imidazo[4,5-b]pyridin-6-yl)-2,3,4,5-tetrahydro-1,4-benzoxazepine] | 0.25 to 1 µM |
| CNCc1nc2c(c(N3CCOc4ccc(-c5cnc6nc(C)[nH]c6c5)cc4C3)n1)CC(C)(C)CC2 [Example 354, 1-{6,6-dimethyl-4-[7-(2-methyl-1H-imidazo[4,5-b]pyridin-6-yl)-2,3-dihydro-1,4-benzoxazepin-4(5H)-yl]-5,6,7,8-tetrahydroquinazolin-2-yl}-N-methylmethanamine] | ≤ 0.01 µM |
| Cc1nc2cc(-c3ccc4c(c3)CN(c3nc(C(C)N5CCCC5)nc5c3CC(C)(C)CC5)CCO4)cnc2[nH]1 (stereo not drawn) [Example 496, 4-[6,6-dimethyl-2-(1-pyrrolidin-1-ylethyl)-5,6,7,8-tetrahydroquinazolin-4-yl]-7-(2-methyl-3H-imidazo[4,5-b]pyridin-6-yl)-2,3,4,5-tetrahydro-1,4-benzoxazepine] | 0.25 to 1 µM |
| CC[C@H]1CCc2c(nc(C)nc2N2CCOc3ccc(-c4cnc5nc(C)[nH]c5c4)cc3C2)C1 [Example 487, 4-[(7S)-7-ethyl-2-methyl-5,6,7,8-tetrahydroquinazolin-4-yl]-7-(2-methyl-1H-imidazo[4,5-b]pyridin-6-yl)-2,3,4,5-tetrahydro-1,4-benzoxazepine] | 0.01 to 0.05 µM |
| COc1ccc2c(N3CCOc4ccc(-c5cnc(N)c(S(=O)(=O)N6CC[C@H](N)C6)c5)cc4C3)ncnc2c1 [Example 454, 3-{[(3S)-3-aminopyrrolidin-1-yl]sulfonyl}-5-{4-[7-(methyloxy)quinazolin-4-yl]-2,3,4,5-tetrahydro-1,4-benzoxazepin-7-yl}pyridin-2-amine] | 0.25 to 1 µM |
| COc1ccc2c(N3CCOc4ccc(-c5ccc6[nH]ncc6c5)cc4C3)nc(C)nc2c1 [Example 274, 7-(1H-indazol-5-yl)-4-[2-methyl-7-(methyloxy)quinazolin-4-yl]-2,3,4,5-tetrahydro-1,4-benzoxazepine] | ≥ 2 µM |
| CC1(C)CCc2ncnc(N3CCOc4ccc(-c5cnc(N)c(S(=O)(=O)N6CCC6)c5)cc4C3)c2C1 [Example 434, 3-(azetidin-1-ylsulfonyl)-5-[4-(6,6-dimethyl-5,6,7,8-tetrahydroquinazolin-4-yl)-2,3,4,5-tetrahydro-1,4-benzoxazepin-7-yl]pyridine-2-amine] | 0.01 to 0.05 µM |
| CN(C)Cc1nc2c(c(N3CCOc4ccc(-c5ccc6[nH]c(C(F)F)nc6c5)cc4C3)n1)CC(C)(C)CC2 [Example 320] | 0.01 to 0.05 µM |
| Cc1ncnc(N2CCOc3ccc(-c4ccc5nc(N)[nH]c5c4)cc3C2)c1Cc1ccc(F)cc1 [Example 189, 6-(4-{5-[(4-fluorophenyl)methyl]-6-methylpyrimidin-4-yl}-2,3,4,5-tetrahydro-1,4-benzoxazepin-7-yl)-1H-benzimidazol-2-amine] | ≤ 0.01 µM |
| Cc1nc2ncc(-c3ccc4c(c3)CN(c3ncnc(C)c3C)CCO4)cc2[nH]1 [Example 257, 4-(5,6-dimethylpyrimidin-4-yl)-7-(2-methyl-1H-imidazo[4,5-b]pyridin-6-yl)-2,3,4,5-tetrahydro-1,4-benzoxazepine] | 0.25 to 1 µM |
| CCNc1nc2ccc(-c3ccc4c(c3)CN(c3cc(Nc5cccc(OC)c5)ncn3)CCO4)cc2[nH]1 [Example 284, N-ethyl-6-[4-(6-{[3-(methyloxy)phenyl]amino}pyrimidin-4-yl)-2,3,4,5-tetrahydro-1,4-benzoxazepin-7-yl]-1H-benzimidazol-2-amine] | 0.25 to 1 µM |
| CC1(C)CCc2ncnc(N3CCOc4ccc(-c5cnc6[nH]c(C(F)F)nc6c5)cc4C3)c2C1 [Example 229, 7-[2-(difluoromethyl)-3H-imidazo[4,5-b]pyridin-6-yl]-4-(6,6-dimethyl-5,6,7,8-tetrahydroquinazolin-4-yl)-2,3,4,5-tetrahydro-1,4-benzoxazepine] | ≤ 0.01 µM |
| CC1(C)CCc2ncnc(N3CCOc4ccc(-c5cnc(N)c(S(=O)(=O)N6CC(N)C6)c5)cc4C3)c2C1 [Example 443, 3-[(3-aminoazetidin-1-yl)sulfonyl]-5-[4-(6,6-dimethyl-5,6,7,8-tetrahydroquinazolin-4-yl)-2,3,4,5-tetrahydro-1,4-benzoxazepin-7-yl]pyridin-2-amine] | ≤ 0.01 µM |
| Cc1nc2ncc(-c3ccc4c(c3)CN(c3nc(CN5CCOCC5)nc5c3CC(C)(C)CC5)CCO4)cc2[nH]1 [Example 498, 4-[6,6-dimethyl-2-(morpholin-4-ylmethyl)-5,6,7,8-tetrahydroquinazolin-4-yl]-7-(2-methyl-1H-imidazo[4,5-b]pyridin-6-yl)-2,3,4,5-tetrahydro-1,4-benzoxazepine] | 0.05 to 0.25 µM |
| Cc1nc2ccc(-c3ccc4c(c3)CN(c3nccc5ccccc35)CCO4)cc2[nH]1 [Example 105, 4-isoquinolin-1-yl-7-(2-methyl-1H-benzimidazol-6-yl)-2,3,4,5-tetrahydro-1,4-benzoxazepine] | 0.05 to 0.25 µM |
| CCC1CCc2ncnc(N3CCOc4ccc(-c5ccc6nc(C)[nH]c6c5)cc4C3)c2C1 (stereo not drawn) [Example 68, 4-(6-ethyl-5,6,7,8-tetrahydroquinazolin-4-yl)-7-(2-methyl-1H-benzimidazol-6-yl)-2,3,4,5-tetrahydro-1,4-benzoxazepine] | 0.01 to 0.05 µM |
| CCCc1c(C)nc(CN(C)C)nc1N1CCOc2ccc(-c3ccc4nc(C)[nH]c4c3)cc2C1 [Example 653, N,N-dimethyl-1-{4-methyl-6-[7-(2-methyl-1H-benzimidazol-6-yl)-2,3-dihydro-1,4-benzoxazepin-4(5H)-yl]-5-propylpyrimidin-2-yl}methanamine] | 0.25 to 1 µM |
| CCN(CC)Cc1nc2c(c(N3CCOc4ccc(-c5cnc6nc(C)[nH]c6c5)cc4C3)n1)CC(C)(C)CC2 [Example 602, N-({6,6-dimethyl-4-[7-(2-methyl-1H-imidazo[4,5-b]pyridin-6-yl)-2,3-dihydro-1,4-benzoxazepin-4(5H)-yl]-5,6,7,8-tetrahydroquinazolin-2-yl}methyl)-N-ethylethanamine] | 0.01 to 0.05 µM |
| COc1cc2c(N3CCOc4ccc(-c5ccc6nc(C)[nH]c6c5)cc4C3)ncnc2cc1O [Example 157, 4-[7-(2-methyl-1H-benzimidazol-6-yl)-2,3-dihydro-1,4-benzoxazepin-4(5H)-yl]-6-(methyloxy)quinazolin-7-ol] | 0.25 to 1 µM |
| CC1(C)CCc2ncnc(N3CCOc4ccc(-c5cnc(N)c(S(=O)(=O)N6CCNCC6)c5)cc4C3)c2C1 [Example 514, 5-[4-(6,6-dimethyl-5,6,7,8-tetrahydroquinazolin-4-yl)-2,3,4,5-tetrahydro-1,4-benzoxazepin-7-yl]-3-(piperazin-1-ylsulfonyl)puridin-2-amine] | ≤ 0.01 µM |
| CCNS(=O)(=O)c1cc(-c2ccc3c(c2)CN(c2ncnc4c2CC(C)(C)CC4)CCO3)cnc1N [Example 396, 2-amino-5-[4-(6,6-dimethyl-5,6,7,8-tetrahydroquinazolin-4-yl)-2,3,4,5-tetrahydro-1,4-benzoxazepin-7-yl]-N-ethylpyridine-3-sulfonamide] | 0.01 to 0.05 µM |
| CC(O)CNS(=O)(=O)c1cc(-c2ccc3c(c2)CN(c2ncnc4c2CC(C)(C)CC4)CCO3)cnc1N (stereo not drawn) [Example 372, 2-amino-5-[4-(6,6-dimethyl-5,6,7,8-tetrahydroquinazolin-4-yl)-2,3,4,5-tetrahydro-1,4-benzoxazepin-7-yl]-N-(2-hydroxypropyl)pyridine-2-sulfonamide] | 0.01 to 0.05 µM |
| Cn1ccc2cc(-c3ccc4c(c3)CN(c3ccnc5ccccc35)CCO4)cnc21 [Example 222] | 0.25 to 1 µM |
